Here are results for 17 compounds from publication PMC6748986, “Potent modulation of the CepR quorum sensing receptor and virulence in a Burkholderia cepacia complex member using non-native lactone ligands” (Scientific Reports, 2019).

“And” between values parts separate entries of the source, which are not always exact repeats. Identical values can stand only once.

For the first test, the target named is T1, CepR (Burkholderia cenocepacia, UniProt B4EMD0).
T1 sequence (B4EMD0 1-239): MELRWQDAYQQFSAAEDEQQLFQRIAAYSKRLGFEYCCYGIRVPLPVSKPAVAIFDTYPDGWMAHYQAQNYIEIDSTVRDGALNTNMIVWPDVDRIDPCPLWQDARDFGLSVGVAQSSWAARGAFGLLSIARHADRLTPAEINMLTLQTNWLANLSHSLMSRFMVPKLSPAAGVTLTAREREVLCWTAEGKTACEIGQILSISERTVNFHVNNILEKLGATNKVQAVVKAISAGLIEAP
The test is described as follows: CepR antagonism in E. coli β-galactosidase reporter (Ec-reporter), competition against C8-AHL. In kind it is cell-based, B. cenocepacia. The note with it: Table S3, Ec-reporter; screening conc. 100 μM; against 10 nM C8-AHL. An excerpt:
(§1) We began our study by screening the AHL library for CepR modulators using an E. coli-based two plasmid reporter system (Ec-reporter)[38]–[40]. Certain members of the Bcc harbor additional QS systems that are either AHL-based (e.g., BviI/BviR in B. vietnamiensis)[41] or diffusible signal factor (DSF)-based (B. cenocepacia)[42], and at least one member of the Bcc has multiple receptors that respond to C8-AHL (e.g., CepR and CepR2 in B. cenocepacia)[43]. Thus, we reasoned that using a CepR reporter in a heterologous background could simplify our initial analyses. We modified our previously reported E. coli-based two plasmid β-galactosidase reporter system to develop a CepR Ec-reporter (see Methods). The first plasmid, pJN105-cepR, contains CepR from B. cenocepacia under the control of the L-arabinose inducible pBAD promoter. A second plasmid contains a transcriptional fusion of lacZ to the cepI promoter region. The two plasmids were co-transformed into a QS mutant E. coli strain (JLD271 ∆sdiA) that lacks its LuxR-type receptor, SdiA. Using this reporter system, if an exogenously -added compound is able to interact with CepR, this will affect the protein’s interaction with the cepI promoter region and alter β-galactosidase production. Enzyme production, and thereby CepR activity, is then measurable via the degradation of a colorimetric substrate for β-galactosidase. Using this new Ec-reporter, we observed robust activity of CepR in response to its native ligand C8-AHL, with an EC50 of 5 nM (Table 1).
To identify antagonists of CepR, we screened the AHL library (at 100 μM) in competition against the native ligand C8-AHL (at approximately twice its EC50 value, 0.01 μM) in the Ec-reporter. […] The active compounds were subjected to dose-response analyses in the Ec-reporter to obtain IC50 values and assess their relative potencies (Table 2; see Table S3 for complete screening data and Fig. S3 for dose-response curves). One general trend that we noted at the outset was the majority of the antagonists had acyl tails of similar or shorter overall length than CepR’s native ligand, C8-AHL. From this set, the strongest antagonists could be divided into two classes: (i) “short alkyl tail” AHLs or analogs thereof, and (ii) phenylacetanoyl HLs (PHLs). The discovery that the latter compounds were CepR antagonists was perhaps not surprising, as we have found substituted PHLs to strongly antagonize the majority of the LuxR-type receptors studied in our laboratory to date[22],[24],[29],[45],[46].
(§2) E. coli β-galactosidase reporter assays (derived from ref.[63]) and reagents used to obtain primary screening and dose-response data were performed as previously described[22],[60],[64], with the following modifications: E. coli JLD271 (∆sdiA) was co-transformed iteratively with pSC11-cepI and pJN105-cepR via electroporation. A single colony was used to start overnight cultures in LB medium + ampicillin (100 μg/mL) + gentamicin (15 μg/mL). A 1:10 dilution of overnight culture was grown in fresh medium to OD600 = 0.25. A sterile solution of L-arabinose in water (27 mM final concentration) was added to induce protein expression, after which cells were plated in 96-well plates containing varying concentrations of compound (200 μL total volume).
(§3) Cells were grown for 4 h, OD600 was read, 50 μL aliquots from each well were permeabilized in 200 μL Z Buffer, and then 150 μL of this mixture used to measure the cleavage of 25 μL of 4 mg/mL CPRG in phosphate buffered saline (PBS) at 37 °C until positive control wells developed a deep red color (~30 min). For all agonism assays, synthetic compound (100 μM) was screened alongside and compared to the native ligand, C8-AHL (100 μM). For all primary and dose-response antagonism assays, the concentration of native ligand utilized was 10 nM (approximately equal to twice its EC50 value). […] At least 3 separate trials were performed using unique cultures on separate days.
With `O=C(CCCc1c[nH]c2ccccc12)N[C@@H]1CCOC1=O` [Compound B5], the “Inh% (100-Act%)” value is reported as -30%.

For the compound `O=C(N[C@H]1CCOC1=O)c1ccc(Br)cc1` [Compound B6], the “Inh% (100-Act%)” value stood at 18%.

As to `O=C(N[C@H]1CCOC1=O)c1ccccc1` [Compound B8], the “Inh% (100-Act%)” value amounted to 1.0%.

On to `O=C(CCc1ccccc1)N[C@H]1CCOC1=O` [Compound B9], for which the “Inh% (100-Act%)” value is -40%.

With `O=C(C=Cc1ccccc1)NC1CCOC1=O` (stereo not shown) [Compound B10], the “Inh% (100-Act%)” value was 11%.

For the compound `O=C(Cc1c[nH]c2ccccc12)N[C@H]1CCOC1=O` [Compound B13], the “Inh% (100-Act%)” value is 22%.

As for `O=C(CCc1c[nH]c2ccccc12)N[C@H]1CCOC1=O` [Compound B14], the “Inh% (100-Act%)” value is -40%.

As to `O=C(Cc1ccc(Cl)cc1)N[C@H]1CCOC1=O` [Compound C5], the “Inh% (100-Act%)” value was determined as 25%.

Consider `CCCCCCC(=O)N[C@H]1CCOC1=O` [Compound C7-AHL, reference compound], for which the “Inh% (100-Act%)” value is on record as -10%.

With `CCCCCCCCCC(=O)N[C@H]1CCOC1=O` [Compound C10-AHL, decanoyl L-homoserine lactone, reference compound], the “Inh% (100-Act%)” value was -30%.

As to `CCCCCCCCCC(=O)NC1CCCC1` [Compound C10-CPA, reference compound], the “Inh% (100-Act%)” value is listed as 4.0%.

Turning to `O=C(Cc1ccc(I)cc1)N[C@H]1CCOC1=O` [Compound C10], the “Inh% (100-Act%)” value was -10%.

As to `CCCCCCCCCCCC(=O)N[C@H]1CCOC1=O` [Compound C12-AHL, Dodecanoyl L-homoserine lactone, reference compound], the “Inh% (100-Act%)” value is on record as -30%.

`CCCCCCCCCCCCCC(=O)N[C@H]1CCOC1=O` [Compound C14-AHL, tetradecanoyl L-homoserine lactone, reference compound]: the “Inh% (100-Act%)” value is -10%.

As for `O=C(Cc1c(F)c(F)c(F)c(F)c1F)N[C@H]1CCOC1=O` [Compound C16], the “Inh% (100-Act%)” value is recorded as -30%.

Consider `[N-]=[N+]=Nc1ccc(CC(=O)N[C@H]2CCOC2=O)cc1` [Compound C17], for which the “Inh% (100-Act%)” value is on record as 26%.

As for `O=C(Cc1ccc(-c2ccccc2)cc1)N[C@H]1CCOC1=O` [Compound C18], the “Inh% (100-Act%)” value was -20%.

The next test deals with T1, CepR. The test is described as follows: CepR agonism in E. coli β-galactosidase reporter (Ec-reporter) JLD271 [pJN105-cepR + pSC11-cepI]. The class given is cell-based, B. cenocepacia. The note with it: Ec-reporter.
From the text: as §1
We used the CepR Ec-reporter to perform a primary agonism screen at a single compound concentration (100 μM, or its solubility limit, indicated in Table S1). Thirty-one compounds displaying ≥70% agonistic activity in CepR (relative to C8-AHL) were identified and subjected to dose-response analyses using the Ec-reporter (Table I; see Table S2 for complete screening data and Fig. S3 for dose-response curves).
as §2, §3
Regarding `O=C(CCc1ccccc1)N[C@H]1CCOC1=O` [Compound B9], the “EC50 fold higher than those for substituted PPHLs” value is recorded as ~ 1000 fold.

Turning to `CCCCCCCCCCCCCC(=O)N[C@H]1CCOC1=O` [Compound C14-AHL, tetradecanoyl L-homoserine lactone, reference compound], the “CepR agonism in words” value was “inactive”.

The test is the same for the next values; noted with them: Ec-reporter, agonism dose-response.
The EC50 is the concentration giving half of the maximal effect. As for `O=C(CCc1ccccc1)N[C@H]1CCOC1=O` [Compound B9], the concentration giving a half-maximal response (EC50) came out at 1 µM.

Consider `CCCCCCCCCC(=O)N[C@H]1CCOC1=O` [Compound C10-AHL, decanoyl L-homoserine lactone, reference compound], for which the EC50 is 0.109 µM and 0.11 µM.

For `CCCCCCCCCCCC(=O)N[C@H]1CCOC1=O` [Compound C12-AHL, Dodecanoyl L-homoserine lactone, reference compound], the EC50 was 0.31 µM.

Staying with this test, now noted: Ec-reporter; activity for 100 μM C8-AHL set to 100%; error ±10%.
With `O=C(CCc1ccccc1)N[C@H]1CCOC1=O` [Compound B9], the “Maximal Activation (%)” value is listed as 88%.

For `CCCCCCCCCC(=O)N[C@H]1CCOC1=O` [Compound C10-AHL, decanoyl L-homoserine lactone, reference compound], the “Maximal Activation (%)” value was 87%.

Consider `CCCCCCCCCCCC(=O)N[C@H]1CCOC1=O` [Compound C12-AHL, Dodecanoyl L-homoserine lactone, reference compound], for which the “Maximal Activation (%)” value stood at 98%.

Consider `CCCCCCCCCCCCCC(=O)N[C@H]1CCOC1=O` [Compound C14-AHL, tetradecanoyl L-homoserine lactone, reference compound], for which the “Maximal Activation (%)” value was 49%.

Still in this test, the particulars now being: Table S2, Ec-reporter; screening conc. 100 μM.
Turning to `O=C(CCCc1c[nH]c2ccccc12)N[C@@H]1CCOC1=O` [Compound B5], the Act% amounted to 7.2%.

As to `O=C(N[C@H]1CCOC1=O)c1ccc(Br)cc1` [Compound B6], the Act% was found to be 56%.

As for `O=C(N[C@H]1CCOC1=O)c1ccccc1` [Compound B8], the Act% is listed as 10%.

Consider `O=C(CCc1ccccc1)N[C@H]1CCOC1=O` [Compound B9], for which the Act% amounted to 88%.

Regarding `O=C(C=Cc1ccccc1)NC1CCOC1=O` (stereo not shown) [Compound B10], the Act% is given as 60%.

Regarding `O=C(Cc1c[nH]c2ccccc12)N[C@H]1CCOC1=O` [Compound B13], the Act% is recorded as -1.1%.

In the case of `O=C(CCc1c[nH]c2ccccc12)N[C@H]1CCOC1=O` [Compound B14], the Act% is listed as 96%.

`O=C(Cc1ccc(Cl)cc1)N[C@H]1CCOC1=O` [Compound C5]: the Act% is given as 0.1%.

With `CCCCCCC(=O)N[C@H]1CCOC1=O` [Compound C7-AHL, reference compound], the Act% came to 106%.

Turning to `CCCCCCCCCC(=O)N[C@H]1CCOC1=O` [Compound C10-AHL, decanoyl L-homoserine lactone, reference compound], the Act% came to 87%.

As for `CCCCCCCCCC(=O)NC1CCCC1` [Compound C10-CPA, reference compound], the Act% came out at 48%.

As to `O=C(Cc1ccc(I)cc1)N[C@H]1CCOC1=O` [Compound C10], the Act% is recorded as 29%.

In the case of `CCCCCCCCCCCC(=O)N[C@H]1CCOC1=O` [Compound C12-AHL, Dodecanoyl L-homoserine lactone, reference compound], the Act% amounted to 98%.

Turning to `CCCCCCCCCCCCCC(=O)N[C@H]1CCOC1=O` [Compound C14-AHL, tetradecanoyl L-homoserine lactone, reference compound], the Act% turned out to be 49%.

As to `O=C(Cc1c(F)c(F)c(F)c(F)c1F)N[C@H]1CCOC1=O` [Compound C16], the Act% amounted to 0.1%.

For the compound `[N-]=[N+]=Nc1ccc(CC(=O)N[C@H]2CCOC2=O)cc1` [Compound C17], the Act% is recorded as 1.0%.

With `O=C(Cc1ccc(-c2ccccc2)cc1)N[C@H]1CCOC1=O` [Compound C18], the Act% is given as 1.4%.
